Experimental data published in paper PMC8413292, “Small-molecule polymerase inhibitor protects non-human primates from measles and reduces shedding” (Nature Communications, 2021).
Several values for one entry are separate records, joined by “and”; a condition that tells them apart may be missing. Identical values can stand only once.

Test system: MeV N gene RNA
Test: Quantitative RT-PCR of MeV N RNA in PBMCs
Type: in vivo
Method: Organs (21 days post-infection) and PBMCs (twice a week) were frozen in RNAlater (Qiagen) at −80 °C until further processing. For the deceased animal, organs were frozen in RNAlater at the day of death. Lymph nodes were thawed on ice, transferred to TRIzol (ambion life technologies) and homogenized using a tissue homogenizer. Total RNA of lymph nodes and PBMCs was extracted following the TRIzol manufacturer’s protocol. RNA (1000 ng for lymph nodes; 110 ng for PBMCs) was then subjected to reverse transcription using random hexamer primers and Superscript III reverse transcriptase in accordance with the manufacturer’s protocols. Subsequent quantitative PCR (qPCR) was carried out using primer pairs specific for a fragment in the MeV N gene[23] or GAPDH gene(Supplementary Table 2) and the PowerUp SYBR Green Master Mix (Thermo Fisher Scientific) in an Applied Biosystems 7500 Real-Time PCR system. Samples were normalized for GAPDH. The comparative (ΔΔCt) Ct method was applied to determine relative amounts of N-encoding RNA present in samples from treated animals compared to those obtained from untreated control animals (lymph nodes) or compared to those obtained from untreated control animals on day 7 post-infection (peak PBMC virus titer).

## Cn1nc(C(F)(F)F)cc1C(=O)Nc1ccc(S(=O)(=O)N2CCCC[C@H]2CCN2CCOCC2)cc1 [ERDRP-0519]
prophylactic, Day 0
  Supp. Figure 3a, relative MeV N RNA in PBMCs, group mean (Mean 2): -12.26
prophylactic, Day 3
  Supp. Figure 3a, relative MeV N RNA in PBMCs, group mean (Mean 2): -12.06
prophylactic, Day 7
  Supp. Figure 3a, relative MeV N RNA in PBMCs, group mean (Mean 2): -11.48
prophylactic, Day 10
  Supp. Figure 3a, relative MeV N RNA in PBMCs, group mean (Mean 2): -12.34
prophylactic, Day 14
  Supp. Figure 3a, relative MeV N RNA in PBMCs, group mean (Mean 2): -13.16
prophylactic, Day 17
  Supp. Figure 3a, relative MeV N RNA in PBMCs, group mean (Mean 2): -11.47
prophylactic, Day 21
  Supp. Figure 3a, relative MeV N RNA in PBMCs, group mean (Mean 2): -10.12
prophylactic, time (d) 0
  Supplemental Figure 3a source data, relative MeV N RNA in PBMCs, individual animals: -12.3202 and -6.433 and -10.4614 and -17.6101 and -12.9356 and -13.7878
prophylactic, time (d) 3
  Supplemental Figure 3a source data, relative MeV N RNA in PBMCs, individual animals: -12.847 and -12.9062 and -10.7172 and -12.2727 and -12.1274 and -11.494
prophylactic, time (d) 7
  Supplemental Figure 3a source data, relative MeV N RNA in PBMCs, individual animals: -12.6218 and -9.583 and -12.0312 and -12.5732 and -12.8193 and -9.245
prophylactic, time (d) 10
  Supplemental Figure 3a source data, relative MeV N RNA in PBMCs, individual animals: -9.991 and -12.9071 and -11.8528 and -13.7115 and -14.2547 and -11.2939
prophylactic, time (d) 14
  Supplemental Figure 3a source data, relative MeV N RNA in PBMCs, individual animals: -12.3346 and -10.7326 and -10.4158 and -12.9517 and -16.1088 and -16.4382
prophylactic, time (d) 17
  Supplemental Figure 3a source data, relative MeV N RNA in PBMCs, individual animals: -14.0262 and -7.645 and -8.833 and -10.0876 and -14.1769 and -14.0235
prophylactic, time (d) 21
  Supplemental Figure 3a source data, relative MeV N RNA in PBMCs, individual animals: -13.9134 and -10.311 and -12.0659 and -11.4656 and -0.8977 and -12.0848
Therapeutic (d3), Day 0
  Supp. Figure 3a, relative MeV N RNA in PBMCs, group mean (Mean 2): -13.2
Therapeutic (d3), Day 3
  Supp. Figure 3a, relative MeV N RNA in PBMCs, group mean (Mean 2): -12.07
Therapeutic (d3), Day 7
  Supp. Figure 3a, relative MeV N RNA in PBMCs, group mean (Mean 2): -9.205
Therapeutic (d3), Day 10
  Supp. Figure 3a, relative MeV N RNA in PBMCs, group mean (Mean 2): -9.289
Therapeutic (d3), Day 14
  Supp. Figure 3a, relative MeV N RNA in PBMCs, group mean (Mean 2): -11.53
Therapeutic (d3), Day 17
  Supp. Figure 3a, relative MeV N RNA in PBMCs, group mean (Mean 2): -11.67
Therapeutic (d3), Day 21
  Supp. Figure 3a, relative MeV N RNA in PBMCs, group mean (Mean 2): -13.06
Therapeutic (d3), time (d) 0
  Supplemental Figure 3a source data, relative MeV N RNA in PBMCs, individual animals: -12.185 and -15.2199 and -11.755 and -14.0483 and -12.7958
Therapeutic (d3), time (d) 3
  Supplemental Figure 3a source data, relative MeV N RNA in PBMCs, individual animals: -13.2368 and -9.809 and -12.089 and -11.8661 and -12.6935 and -12.7459
Therapeutic (d3), time (d) 7
  Supplemental Figure 3a source data, relative MeV N RNA in PBMCs, individual animals: -6.7874 and -7.787 and -8.103 and -8.648 and -13.5153 and -10.39
Therapeutic (d3), time (d) 10
  Supplemental Figure 3a source data, relative MeV N RNA in PBMCs, individual animals: -4.115 and -10.1748 and -9.33 and -8.711 and -14.231 and -9.172
Therapeutic (d3), time (d) 14
  Supplemental Figure 3a source data, relative MeV N RNA in PBMCs, individual animals: -9.809 and -12.4589 and -12.5095 and -12.5754 and -8.538 and -13.3167
Therapeutic (d3), time (d) 17
  Supplemental Figure 3a source data, relative MeV N RNA in PBMCs, individual animals: -10.29 and -10.5346 and -12.5229 and -11.5387 and -13.4468
Therapeutic (d3), time (d) 21
  Supplemental Figure 3a source data, relative MeV N RNA in PBMCs, individual animals: -15.6913 and -17.4162 and -8.965 and -9.87 and -13.3809
Therapeutic (d7), Day 0
  Supp. Figure 3a, relative MeV N RNA in PBMCs, group mean (Mean 2): -11.48
Therapeutic (d7), Day 3
  Supp. Figure 3a, relative MeV N RNA in PBMCs, group mean (Mean 2): -11.42
Therapeutic (d7), Day 7
  Supp. Figure 3a, relative MeV N RNA in PBMCs, group mean (Mean 2): -3.189
Therapeutic (d7), Day 10
  Supp. Figure 3a, relative MeV N RNA in PBMCs, group mean (Mean 2): -4.318
Therapeutic (d7), Day 14
  Supp. Figure 3a, relative MeV N RNA in PBMCs, group mean (Mean 2): -7.135
Therapeutic (d7), Day 17
  Supp. Figure 3a, relative MeV N RNA in PBMCs, group mean (Mean 2): -8.639
Therapeutic (d7), Day 21
  Supp. Figure 3a, relative MeV N RNA in PBMCs, group mean (Mean 2): -9.558
Therapeutic (d7), time (d) 0
  Supplemental Figure 3a source data, relative MeV N RNA in PBMCs, individual animals: -14.3685 and -13.0066 and -11.8077 and -7.512 and -11.9115 and -10.2528
